Reference: patent US9732119B2, “Immunomodulators” (BRISTOL-MYERS SQUIBB COMPANY, priority 2014, dated 2017)

Each compound was assayed against T1, PD-1-Ig binding to PD-L1-TVMV-His (PD-L1-His) (Homo sapiens, UniProt Q9NZQ7) (assay: PD-1/PD-L1 Homogenous Time-Resolved Fluorescence (HTRF) binding assay). Conditions: PD-1-Ig (20 nM) / PD-L1-His (10 nM); numeric values.
T1 construct: hPDL1(19-239)-TVMV-His; made in house; host or cells: HEK293T cells
Excerpt: The ability of the macrocyclic peptides of the present disclosure to bind to PD-L1 was investigated using a PD-1/PD-L1 Homogenous Time-Resolved Fluorescence (HTRF) binding assay.
Homogenous Time-Resolved Fluorescence (HTRF) Assays of Binding of Soluble PD-1 to Soluble PD-L1. Soluble PD-1 and soluble PD-L1 refers to proteins with carboxyl-end truncations that remove the transmembrane-spanning regions and are fused to heterologous sequences, specifically the Fc portion of the human immunoglobuling G sequence (Ig) or the hexahistidine epitope tag (His). All binding studies were performed in an HTRF assay buffer consisting of dPBS supplemented with 0.1% (w/v) bovine serum albumin and 0.05% (v/v) Tween-20. For the PD-1-Ig/PD-L1-His binding assay, inhibitors were pre-incubated with PD-L1-His (10 nM final) for 15 m in 4 μl of assay buffer, followed by addition of PD-1-Ig (20 nM final) in 1 μl of assay buffer and further incubation for 15 m. PD-L1 fusion proteins from either human, cynomologous macaques, mouse, or other species were used. HTRF detection was achieved using europium crypate-labeled anti-Ig monoclonal antibody (1 nM final) and allophycocyanin (APC) labeled anti-His monoclonal antibody (20 nM final). Antibodies were diluted in HTRF detection buffer and 5 μl was dispensed on top of binding reaction. […] Additional binding assays were established between PD-1-Ig/PD-L2-His (20 and 5 nM, respectively), CD80-His/PD-L1-Ig (100 and 10 nM, respectively) and CD80-His/CTLA4-Ig (10 and 5 nM, respectively).
Recombinant Proteins. […] Human PD-L2-His (Sino Biologicals), CD80-His (Sino Biologicals), CTLA4-Ig (RnD Systems) were all obtained through commercial sources.

T1 sequence (Q9NZQ7 with tags, fused parts or gaps): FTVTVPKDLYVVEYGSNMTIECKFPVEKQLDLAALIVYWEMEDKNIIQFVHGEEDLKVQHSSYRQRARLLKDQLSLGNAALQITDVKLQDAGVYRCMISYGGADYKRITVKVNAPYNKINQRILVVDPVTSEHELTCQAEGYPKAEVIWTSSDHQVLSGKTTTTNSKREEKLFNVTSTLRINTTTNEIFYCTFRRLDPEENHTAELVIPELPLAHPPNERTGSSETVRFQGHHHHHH

IC50 | Compound
15 nM | CCCC[C@H]1C(=O)N(C)[C@@H](CCCC)C(=O)N[C@@H](CC(C)C)C(=O)N[C@H](C(=O)NCC(N)=O)CNCC(=O)N[C@@H](Cc2ccc(F)cc2)C(=O)N(C)[C@@H](C)C(=O)N[C@@H](CC(=O)O)C(=O)N2CCC[C@H]2C(=O)N[C@@H](CCC(N)=O)C(=O)N[C@@H](CC(=O)O)C(=O)N2C[C@H](O)C[C@H]2C(=O)N[C@@H](Cc2c[nH]c3ccccc23)C(=O)N[C@@H](CC(N)=O)C(=O)N[C@@H](Cc2cn(CC(=O)O)c3ccccc23)C(=O)N1C [Example 9015]
16 nM | CCCC[C@H]1C(=O)N(C)[C@@H](CCCC)C(=O)N[C@@H](CCC(=O)O)C(=O)N[C@H](C(=O)NCC(N)=O)CNCC(=O)N[C@@H](Cc2ccc(F)cc2)C(=O)N(C)[C@@H](C)C(=O)N[C@@H](CC(N)=O)C(=O)N2CCC[C@H]2C(=O)N[C@@H](CCC(N)=O)C(=O)N[C@@H](CCC(N)=O)C(=O)N2C[C@H](O)C[C@H]2C(=O)N[C@@H](Cc2c[nH]c3ccccc23)C(=O)N[C@@H](CC(N)=O)C(=O)N[C@@H](Cc2cn(CC(=O)O)c3ccccc23)C(=O)N1C [Example 9025]

Same assay, conditions: PD-1-Ig (20 nM) / PD-L1-His (10 nM); range classes

IC50 | Compound
10 to 99 nM | CCCC[C@H]1C(=O)N(C)[C@@H](CCCC)C(=O)N[C@@H](CCC(=O)O)C(=O)N[C@H](C(=O)NCC(N)=O)CNCC(=O)N[C@@H](Cc2ccc(F)cc2)C(=O)N(C)[C@@H](C)C(=O)N[C@@H](CC(N)=O)C(=O)N2CCC[C@H]2C(=O)N[C@@H](CCC(N)=O)C(=O)N[C@@H](CC(C)C)C(=O)N2C[C@H](O)C[C@H]2C(=O)N[C@@H](Cc2c[nH]c3ccccc23)C(=O)N[C@@H](CC(N)=O)C(=O)N[C@@H](Cc2cn(CC(=O)O)c3ccccc23)C(=O)N1C [Example 9022]
1 to 9.9 nM | CCCC[C@H]1C(=O)N(C)[C@@H](CCCC)C(=O)N[C@@H](CC(C)C)C(=O)N[C@H](C(N)=O)CNCC(=O)N[C@@H](Cc2ccc(O)cc2)C(=O)N2CCCC[C@H]2C(=O)N[C@@H](CC(N)=O)C(=O)N2CCC[C@H]2C(=O)N[C@@H](CCC(N)=O)C(=O)N[C@@H](CC(C)C)C(=O)N2C[C@H](O)C[C@H]2C(=O)N[C@@H](Cc2c[nH]c3ccccc23)C(=O)N[C@@H](CC(N)=O)C(=O)N[C@@H](Cc2cn(CC(=O)O)c3ccccc23)C(=O)N1C [Example 9026]
1 to 9.9 nM | CCCC[C@H]1C(=O)N(C)[C@@H](CCCC)C(=O)N[C@@H](CC(C)C)C(=O)N[C@H](C(N)=O)CNCC(=O)N[C@@H](Cc2ccc(O)cc2)C(=O)N2CCCC[C@H]2C(=O)N[C@@H](CC(N)=O)C(=O)N2CCC[C@H]2C(=O)N[C@@H](CCC(N)=O)C(=O)N[C@@H](CC(=O)O)C(=O)N2C[C@H](O)C[C@H]2C(=O)N[C@@H](Cc2c[nH]c3ccccc23)C(=O)N[C@@H](CC(N)=O)C(=O)N[C@@H](Cc2cn(CC(=O)O)c3ccccc23)C(=O)N1C [Example 9027]
1 to 9.9 nM | CCCC[C@H]1C(=O)N(C)[C@@H](CCCC)C(=O)N[C@@H](CC(C)C)C(=O)N[C@H](C(N)=O)CNCC(=O)N[C@@H](Cc2ccc(O)cc2)C(=O)N2CCCC[C@H]2C(=O)N[C@@H](CC(N)=O)C(=O)N2CCC[C@H]2C(=O)N[C@@H](CCC(N)=O)C(=O)N[C@@H](CCC(=O)O)C(=O)N2C[C@H](O)C[C@H]2C(=O)N[C@@H](Cc2c[nH]c3ccccc23)C(=O)N[C@@H](CC(N)=O)C(=O)N[C@@H](Cc2cn(CC(=O)O)c3ccccc23)C(=O)N1C [Example 9028]
1 to 9.9 nM | CCCC[C@H]1C(=O)N(C)[C@@H](CCCC)C(=O)N[C@@H](CC(C)C)C(=O)N[C@H](C(N)=O)CNCC(=O)N[C@@H](Cc2ccc(O)cc2)C(=O)N2CCCC[C@H]2C(=O)N[C@@H](CC(N)=O)C(=O)N2CCC[C@H]2C(=O)N[C@@H](CCC(N)=O)C(=O)N[C@@H](CCC(N)=O)C(=O)N2C[C@H](O)C[C@H]2C(=O)N[C@@H](Cc2c[nH]c3ccccc23)C(=O)N[C@@H](CC(N)=O)C(=O)N[C@@H](Cc2cn(CC(=O)O)c3ccccc23)C(=O)N1C [Example 9029]
10 to 99 nM | CCCC[C@H]1C(=O)N(C)[C@@H](CCCC)C(=O)N[C@@H](CC(C)C)C(=O)N[C@H](C(N)=O)CNCC(=O)N[C@@H](Cc2ccc(F)cc2)C(=O)N2CCCC[C@H]2C(=O)N[C@@H](CC(N)=O)C(=O)N2CCC[C@H]2C(=O)N[C@@H](CCC(N)=O)C(=O)N[C@@H](CC(C)C)C(=O)N2C[C@H](O)C[C@H]2C(=O)N[C@@H](Cc2c[nH]c3ccccc23)C(=O)N[C@@H](CC(N)=O)C(=O)N[C@@H](Cc2cn(CC(=O)O)c3ccccc23)C(=O)N1C [Example 9030]

The remaining lines, values behind:

Compound | IC50
CCCC[C@H]1C(=O)N(C)[C@@H](CCCC)C(=O)N[C@@H](CC(C)C)C(=O)N[C@H](C(=O)NCC(N)=O)CNCC(=O)N[C@@H](Cc2ccc(F)cc2)C(=O)N(C)[C@@H](C)C(=O)N[C@@H](CC(=O)O)C(=O)N2CCC[C@H]2C(=O)N[C@@H](CCC(N)=O)C(=O)N[C@@H](CCC(=O)O)C(=O)N2C[C@H](O)C[C@H]2C(=O)N[C@@H](Cc2c[nH]c3ccccc23)C(=O)N[C@@H](CC(N)=O)C(=O)N[C@@H](Cc2cn(CC(=O)O)c3ccccc23)C(=O)N1C [Example 9016] | 1 to 9.9 nM
CCCC[C@H]1C(=O)N(C)[C@@H](CCCC)C(=O)N[C@@H](CC(C)C)C(=O)N[C@H](C(=O)NCC(N)=O)CNCC(=O)N[C@@H](Cc2ccc(F)cc2)C(=O)N(C)[C@@H](C)C(=O)N[C@@H](CC(=O)O)C(=O)N2CCC[C@H]2C(=O)N[C@@H](CCC(N)=O)C(=O)N[C@@H](CCC(N)=O)C(=O)N2C[C@H](O)C[C@H]2C(=O)N[C@@H](Cc2c[nH]c3ccccc23)C(=O)N[C@@H](CC(N)=O)C(=O)N[C@@H](Cc2cn(CC(=O)O)c3ccccc23)C(=O)N1C [Example 9017] | 10 to 99 nM
CCCC[C@H]1C(=O)N(C)[C@@H](CCCC)C(=O)N[C@@H](CCC(=O)O)C(=O)N[C@H](C(=O)NCC(N)=O)CNCC(=O)N[C@@H](Cc2ccc(O)cc2)C(=O)N(C)[C@@H](C)C(=O)N[C@@H](CC(N)=O)C(=O)N2CCC[C@H]2C(=O)N[C@@H](CCC(N)=O)C(=O)N[C@@H](CC(C)C)C(=O)N2C[C@H](O)C[C@H]2C(=O)N[C@@H](Cc2c[nH]c3ccccc23)C(=O)N[C@@H](CC(N)=O)C(=O)N[C@@H](Cc2cn(CC(=O)O)c3ccccc23)C(=O)N1C [Example 9018] | 1 to 9.9 nM
CCCC[C@H]1C(=O)N(C)[C@@H](CCCC)C(=O)N[C@@H](CCC(=O)O)C(=O)N[C@H](C(=O)NCC(N)=O)CNCC(=O)N[C@@H](Cc2ccc(O)cc2)C(=O)N(C)[C@@H](C)C(=O)N[C@@H](CC(N)=O)C(=O)N2CCC[C@H]2C(=O)N[C@@H](CCC(N)=O)C(=O)N[C@@H](CC(=O)O)C(=O)N2C[C@H](O)C[C@H]2C(=O)N[C@@H](Cc2c[nH]c3ccccc23)C(=O)N[C@@H](CC(N)=O)C(=O)N[C@@H](Cc2cn(CC(=O)O)c3ccccc23)C(=O)N1C [Example 9019] | 1 to 9.9 nM
CCCC[C@H]1C(=O)N(C)[C@@H](CCCC)C(=O)N[C@@H](CCC(=O)O)C(=O)N[C@H](C(=O)NCC(N)=O)CNCC(=O)N[C@@H](Cc2ccc(O)cc2)C(=O)N(C)[C@@H](C)C(=O)N[C@@H](CC(N)=O)C(=O)N2CCC[C@H]2C(=O)N[C@@H](CCC(N)=O)C(=O)N[C@@H](CCC(=O)O)C(=O)N2C[C@H](O)C[C@H]2C(=O)N[C@@H](Cc2c[nH]c3ccccc23)C(=O)N[C@@H](CC(N)=O)C(=O)N[C@@H](Cc2cn(CC(=O)O)c3ccccc23)C(=O)N1C [Example 9020] | 10 to 99 nM
CCCC[C@H]1C(=O)N(C)[C@@H](CCCC)C(=O)N[C@@H](CCC(=O)O)C(=O)N[C@H](C(=O)NCC(N)=O)CNCC(=O)N[C@@H](Cc2ccc(O)cc2)C(=O)N(C)[C@@H](C)C(=O)N[C@@H](CC(N)=O)C(=O)N2CCC[C@H]2C(=O)N[C@@H](CCC(N)=O)C(=O)N[C@@H](CCC(N)=O)C(=O)N2C[C@H](O)C[C@H]2C(=O)N[C@@H](Cc2c[nH]c3ccccc23)C(=O)N[C@@H](CC(N)=O)C(=O)N[C@@H](Cc2cn(CC(=O)O)c3ccccc23)C(=O)N1C [Example 9021] | 10 to 99 nM
CCCC[C@H]1C(=O)N(C)[C@@H](CCCC)C(=O)N[C@@H](CCC(=O)O)C(=O)N[C@H](C(=O)NCC(N)=O)CNCC(=O)N[C@@H](Cc2ccc(F)cc2)C(=O)N(C)[C@@H](C)C(=O)N[C@@H](CC(N)=O)C(=O)N2CCC[C@H]2C(=O)N[C@@H](CCC(N)=O)C(=O)N[C@@H](CC(=O)O)C(=O)N2C[C@H](O)C[C@H]2C(=O)N[C@@H](Cc2c[nH]c3ccccc23)C(=O)N[C@@H](CC(N)=O)C(=O)N[C@@H](Cc2cn(CC(=O)O)c3ccccc23)C(=O)N1C [Example 9023] | 10 to 99 nM
CCCC[C@H]1C(=O)N(C)[C@@H](CCCC)C(=O)N[C@@H](CCC(=O)O)C(=O)N[C@H](C(=O)NCC(N)=O)CNCC(=O)N[C@@H](Cc2ccc(F)cc2)C(=O)N(C)[C@@H](C)C(=O)N[C@@H](CC(N)=O)C(=O)N2CCC[C@H]2C(=O)N[C@@H](CCC(N)=O)C(=O)N[C@@H](CCC(=O)O)C(=O)N2C[C@H](O)C[C@H]2C(=O)N[C@@H](Cc2c[nH]c3ccccc23)C(=O)N[C@@H](CC(N)=O)C(=O)N[C@@H](Cc2cn(CC(=O)O)c3ccccc23)C(=O)N1C [Example 9024] | 10 to 99 nM
